The values below come from patent US7553864B2, “Compounds for the treatment of inflammatory disorders and microbial diseases” (Schering Corporation, priority 2005, dated 2009).

The subject of the assay is LpxC enzyme. In words: LpxC enzyme assay (RapidFire high-throughput mass spectrometry). It counts as biochemical. The method in brief:
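0.2 nM enzyme with 1.0 μM UDP-3-O-(R-3-hydroxymyristoyl)-N-acetylglucosamine in 25 mM HEPES pH 7.3, 150 mM NaCl, 2.0 mM DTT, 0.01% BSA, 2% DMSO; 60 min at room temperature, quenched with HCl. Substrate and product quantified by RapidFire mass spectrometry; percent conversion gives percent inhibition versus DMSO control.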

Where [1] appears, read: concentration 0.10 (unit not given).
Where [2] appears, read: concentration 0.20 (unit not given).
[3] abbreviates: concentration 0.39 (unit not given).
[4] abbreviates: concentration 0.78 (unit not given).
The mark [5] stands for this setting: concentration 1.56 (unit not given).
Where [6] appears, read: concentration 3.13 (unit not given).
[7] abbreviates: concentration 6.25 (unit not given).
Setting [8] is: concentration 12.50 (unit not given).
Setting [9] is: concentration 25 (unit not given).
Where [10] appears, read: concentration 50 (unit not given).

`CN(C)C(=O)[C@H](O)[C@@H](O)C(=O)N1CCC(c2ccc3ccccc3c2)CC1` [Compound 52]: the “LpxC enzyme assay rating (% inhibition at indicated concentrations)” value runs as follows: under setting [1], “C (less than 10% inhibition)”; under setting [2], “C (less than 10% inhibition)”; under setting [3], “C (less than 10% inhibition)”; under setting [4], “C (less than 10% inhibition)”; under setting [5], “C (less than 10% inhibition)”; under setting [6], “C (less than 10% inhibition)”. Besides, the “LpxC enzyme assay rating (% inhibition at indicated concentrations)” value runs as follows: under setting [7], “B (10-30% inhibition)”; under setting [8], “B (10-30% inhibition)”; under setting [9], “B (10-30% inhibition)”; under setting [10], “A (greater than 30% inhibition)”.

Consider `CN(C)C(=O)[C@H](O)[C@@H](O)C(=O)Nc1ccc(Oc2ccccc2)cc1` [Compound 53], for which the “LpxC enzyme assay rating (% inhibition at indicated concentrations)” value runs as follows: under setting [1], “C (less than 10% inhibition)”; under setting [2], “C (less than 10% inhibition)”; under setting [3], “C (less than 10% inhibition)”; under setting [4], “B (10-30% inhibition)”; under setting [5], “C (less than 10% inhibition)”; under setting [6], “C (less than 10% inhibition)”. Also, the “LpxC enzyme assay rating (% inhibition at indicated concentrations)” value under setting [7] is “C (less than 10% inhibition)”, the “LpxC enzyme assay rating (% inhibition at indicated concentrations)” value under setting [8] is reported as “C (less than 10% inhibition)”, the “LpxC enzyme assay rating (% inhibition at indicated concentrations)” value under setting [9] is on record as “C (less than 10% inhibition)” and the “LpxC enzyme assay rating (% inhibition at indicated concentrations)” value under setting [10] was “C (less than 10% inhibition)”.

On to `CN(C)C(=O)[C@H](O)[C@@H](O)C(=O)Nc1ccc(N2CCOCC2)cc1` [Compound 54], for which the “LpxC enzyme assay rating (% inhibition at indicated concentrations)” value was “C (less than 10% inhibition)” under setting [1]; “C (less than 10% inhibition)” under setting [2]; “C (less than 10% inhibition)” under setting [3]; “C (less than 10% inhibition)” under setting [4]; “C (less than 10% inhibition)” under setting [5]; “B (10-30% inhibition)” under setting [6]. In addition, the “LpxC enzyme assay rating (% inhibition at indicated concentrations)” value is, setting by setting: under setting [7], “C (less than 10% inhibition)”; under setting [8], “C (less than 10% inhibition)”; under setting [9], “C (less than 10% inhibition)”; under setting [10], “C (less than 10% inhibition)”.

With `CN1CCN(c2ccc(NC(=O)[C@H](O)[C@@H](O)C(=O)N(C)C)cc2)CC1` [Compound 55], the “LpxC enzyme assay rating (% inhibition at indicated concentrations)” value by setting is: under setting [1], “C (less than 10% inhibition)”; under setting [2], “B (10-30% inhibition)”; under setting [3], “C (less than 10% inhibition)”; under setting [4], “B (10-30% inhibition)”; under setting [5], “B (10-30% inhibition)”; under setting [6], “B (10-30% inhibition)”. Also, the “LpxC enzyme assay rating (% inhibition at indicated concentrations)” value by setting is: under setting [7], “C (less than 10% inhibition)”; under setting [8], “C (less than 10% inhibition)”; under setting [9], “B (10-30% inhibition)”; under setting [10], “B (10-30% inhibition)”.

Take `CN(C)CCOc1ccc(NC(=O)[C@H](O)[C@@H](O)C(=O)N(C)C)cc1` [Compound 56]: the “LpxC enzyme assay rating (% inhibition at indicated concentrations)” value is “C (less than 10% inhibition)” under setting [1]; “B (10-30% inhibition)” under setting [2]; “C (less than 10% inhibition)” under setting [3]; “C (less than 10% inhibition)” under setting [4]; “C (less than 10% inhibition)” under setting [5]; “C (less than 10% inhibition)” under setting [6]. Further, the “LpxC enzyme assay rating (% inhibition at indicated concentrations)” value reads like this: under setting [7], “B (10-30% inhibition)”; under setting [8], “C (less than 10% inhibition)”; under setting [9], “C (less than 10% inhibition)”; under setting [10], “C (less than 10% inhibition)”.

In the case of `CN(C)CCCOc1ccc(NC(=O)[C@H](O)[C@@H](O)C(=O)N(C)C)cc1` [Compound 57], the “LpxC enzyme assay rating (% inhibition at indicated concentrations)” value is, setting by setting: under setting [1], “B (10-30% inhibition)”; under setting [2], “C (less than 10% inhibition)”; under setting [3], “B (10-30% inhibition)”; under setting [4], “C (less than 10% inhibition)”; under setting [5], “C (less than 10% inhibition)”; under setting [6], “C (less than 10% inhibition)”. Also, the “LpxC enzyme assay rating (% inhibition at indicated concentrations)” value was “C (less than 10% inhibition)” under setting [7], “C (less than 10% inhibition)” under setting [8], “B (10-30% inhibition)” under setting [9] and “C (less than 10% inhibition)” under setting [10].

In the case of `CN(C)C(=O)[C@H](O)[C@@H](O)C(=O)Nc1ccc(-n2cccn2)cc1` [Compound 58], the “LpxC enzyme assay rating (% inhibition at indicated concentrations)” value under setting [1] is given as “C (less than 10% inhibition)”; the “LpxC enzyme assay rating (% inhibition at indicated concentrations)” value under setting [2] is reported as “B (10-30% inhibition)”; the “LpxC enzyme assay rating (% inhibition at indicated concentrations)” value under setting [3] is recorded as “C (less than 10% inhibition)”; the “LpxC enzyme assay rating (% inhibition at indicated concentrations)” value under setting [4] is reported as “B (10-30% inhibition)”; the “LpxC enzyme assay rating (% inhibition at indicated concentrations)” value under setting [5] is “C (less than 10% inhibition)”; the “LpxC enzyme assay rating (% inhibition at indicated concentrations)” value under setting [6] is recorded as “B (10-30% inhibition)”. Besides, the “LpxC enzyme assay rating (% inhibition at indicated concentrations)” value by setting is: under setting [7], “B (10-30% inhibition)”; under setting [8], “B (10-30% inhibition)”; under setting [9], “C (less than 10% inhibition)”; under setting [10], “B (10-30% inhibition)”.

On to `CN(C)C(=O)[C@H](O)[C@@H](O)C(=O)Nc1ccc(-c2cc[nH]n2)cc1` [Compound 59], for which the “LpxC enzyme assay rating (% inhibition at indicated concentrations)” value is on record as “B (10-30% inhibition)” under setting [1]; “C (less than 10% inhibition)” under setting [2]; “B (10-30% inhibition)” under setting [3]; “C (less than 10% inhibition)” under setting [4]; “C (less than 10% inhibition)” under setting [5]; “C (less than 10% inhibition)” under setting [6]. Besides, the “LpxC enzyme assay rating (% inhibition at indicated concentrations)” value reads like this: under setting [7], “C (less than 10% inhibition)”; under setting [8], “C (less than 10% inhibition)”; under setting [9], “B (10-30% inhibition)”; under setting [10], “C (less than 10% inhibition)”.

With `O=C(NCCCCl)[C@H](O)[C@@H](O)C(=O)Nc1ccc(C#Cc2ccccc2)cc1` [Compound 60], the “LpxC enzyme assay rating (% inhibition at indicated concentrations)” value runs as follows: under setting [1], “C (less than 10% inhibition)”; under setting [2], “C (less than 10% inhibition)”; under setting [3], “B (10-30% inhibition)”; under setting [4], “B (10-30% inhibition)”; under setting [5], “C (less than 10% inhibition)”; under setting [6], “B (10-30% inhibition)”. Besides, the “LpxC enzyme assay rating (% inhibition at indicated concentrations)” value by setting is: under setting [7], “B (10-30% inhibition)”; under setting [8], “B (10-30% inhibition)”; under setting [9], “C (less than 10% inhibition)”; under setting [10], “C (less than 10% inhibition)”.

Regarding `CCCc1ccc(NC(=O)[C@H](O)[C@@H](O)C(=O)NCCCCl)cc1` [Compound 61], the “LpxC enzyme assay rating (% inhibition at indicated concentrations)” value is, setting by setting: under setting [1], “C (less than 10% inhibition)”; under setting [2], “C (less than 10% inhibition)”; under setting [3], “C (less than 10% inhibition)”; under setting [4], “C (less than 10% inhibition)”; under setting [5], “C (less than 10% inhibition)”; under setting [6], “C (less than 10% inhibition)”. In addition, the “LpxC enzyme assay rating (% inhibition at indicated concentrations)” value reads like this: under setting [7], “C (less than 10% inhibition)”; under setting [8], “C (less than 10% inhibition)”; under setting [9], “B (10-30% inhibition)”; under setting [10], “B (10-30% inhibition)”.
